Results from US9580413B2, “Substituted pyrrolidines as ROS tyrosine kinase inhibitors” (NIPPON SHINYAKU CO., LTD., priority 2012, dated 2017).
Where a name gives a salt, the structure may show the parent alone.

Experiments:
ROS tyrosine kinase = biological target: T1, ROS tyrosine kinase (Homo sapiens, UniProt P08922); assay: ROS tyrosine kinase inhibitory activity test (ELISA); type: biochemical, humans; conditions: 25 μM ATP substrate solution, 30° C., one hour
T1 construct: purchased Carna Biosciences, Inc
Method in brief: (§1)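 Human recombinant ROS or JAK2 kinase (added as a 0.25 nM solution) reacted for 1 h at 30 °C in 15 mM Tris-Cl pH 7.5, 0.01% Tween-20, 1 mM DTT with compound from DMSO. Substrate phosphotyrosine was detected by HRP anti-phosphotyrosine antibody and TMB at A450, and IC50 came from non-linear regression.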

JAK2 tyrosine kinase = biological target: T2, JAK2 tyrosine kinase (Homo sapiens, UniProt O60674); assay: JAK2 tyrosine kinase inhibitory activity test (ELISA); type: biochemical, humans; conditions: 25 μM ATP substrate solution, 30° C., one hour
T2 construct: purchased Carna Biosciences, Inc
Method in brief: as §1

FIG-ROS/BaF3 cell = biological target: T3, FIG-ROS/BaF3 cell (Homo sapiens, UniProt P08922); assay: Proliferation inhibitory activity test against FIG-ROS/BaF3 cell; type: cell-based; conditions: 3 days incubation, cell counting kit; read-out: Proliferation inhibitory activity against FIG-ROS/BaF3 cell (IC50)
T3 construct: fused on or other part: Q9HD26 (Golgi-associated PDZ and coiled-coil motif-containing protein)
Method: A BaF3 cell which had been transformed by introducing the FIG-ROS fusion gene (derived from U118MG human glioma cell) (FIG-ROS/BaF3 Cell) was prepared on a culture medium, seeded on a 96-well plate in the number of 1×10^3/100 μL per well, and then allowed to stand in a CO2 incubator (at 37° C. and 5% CO2). As the culture medium, 10% FBS (fetal bovine serum)-incorporated RPMI-1640 was used.
2. Proliferation Inhibitory Activity Test:
A test substance was dissolved in dimethyl sulfoxide (DMSO) to 10 mM and further diluted with DMSO to 100-fold to prepare a 100 μM solution. This was diluted with a 1% DMSO-incorporated medium to concentrations of 10-fold of the concentration to be measured (10,000, 1,000, 100, 10, and 1 nM). Each of the medicine solutions was added at 11 μL per well and mixed. To a control having no medicine added thereto, a 1% DMSO-incorporated medium was added, and incubated in a CO2 incubator (at 37° C. and 5% CO2) for 3 days. After completion of the incubation, the number of live cells was counted using a cell counting kit. First of all, each cell counting kit solution was added at 5 μL per well and mixed, and incubated in a CO2 incubator (at 37° C. and 5% CO2) for 4 hours. An absorbance at 450 nm was measured with a microplate reader (Model 3550, manufactured by BIO-RAD, Benchmark, manufactured by BIO-RAD, or iMARK, manufactured by BIO-RAD) with a reference wavelength of 650 nm.
3. Analysis of Measurement Results:
A non-linear regression analysis was performed for the measured absorbance with an SAS system (SAS Institute Inc.), and a concentration of each of the test substances of inhibiting the cell proliferation at 50% (IC50) was calculated. The proliferation inhibitory activity (IC50, nM) of each of the test substances against the FIG-ROS/BaF3 cell is shown in Table 9.

[1] = test system: non-small cell lung cancer with ROS fusion gene positive; conditions: clinical application, Non-Patent Document 22; cited from earlier work

T1 sequence (P08922 28-2347): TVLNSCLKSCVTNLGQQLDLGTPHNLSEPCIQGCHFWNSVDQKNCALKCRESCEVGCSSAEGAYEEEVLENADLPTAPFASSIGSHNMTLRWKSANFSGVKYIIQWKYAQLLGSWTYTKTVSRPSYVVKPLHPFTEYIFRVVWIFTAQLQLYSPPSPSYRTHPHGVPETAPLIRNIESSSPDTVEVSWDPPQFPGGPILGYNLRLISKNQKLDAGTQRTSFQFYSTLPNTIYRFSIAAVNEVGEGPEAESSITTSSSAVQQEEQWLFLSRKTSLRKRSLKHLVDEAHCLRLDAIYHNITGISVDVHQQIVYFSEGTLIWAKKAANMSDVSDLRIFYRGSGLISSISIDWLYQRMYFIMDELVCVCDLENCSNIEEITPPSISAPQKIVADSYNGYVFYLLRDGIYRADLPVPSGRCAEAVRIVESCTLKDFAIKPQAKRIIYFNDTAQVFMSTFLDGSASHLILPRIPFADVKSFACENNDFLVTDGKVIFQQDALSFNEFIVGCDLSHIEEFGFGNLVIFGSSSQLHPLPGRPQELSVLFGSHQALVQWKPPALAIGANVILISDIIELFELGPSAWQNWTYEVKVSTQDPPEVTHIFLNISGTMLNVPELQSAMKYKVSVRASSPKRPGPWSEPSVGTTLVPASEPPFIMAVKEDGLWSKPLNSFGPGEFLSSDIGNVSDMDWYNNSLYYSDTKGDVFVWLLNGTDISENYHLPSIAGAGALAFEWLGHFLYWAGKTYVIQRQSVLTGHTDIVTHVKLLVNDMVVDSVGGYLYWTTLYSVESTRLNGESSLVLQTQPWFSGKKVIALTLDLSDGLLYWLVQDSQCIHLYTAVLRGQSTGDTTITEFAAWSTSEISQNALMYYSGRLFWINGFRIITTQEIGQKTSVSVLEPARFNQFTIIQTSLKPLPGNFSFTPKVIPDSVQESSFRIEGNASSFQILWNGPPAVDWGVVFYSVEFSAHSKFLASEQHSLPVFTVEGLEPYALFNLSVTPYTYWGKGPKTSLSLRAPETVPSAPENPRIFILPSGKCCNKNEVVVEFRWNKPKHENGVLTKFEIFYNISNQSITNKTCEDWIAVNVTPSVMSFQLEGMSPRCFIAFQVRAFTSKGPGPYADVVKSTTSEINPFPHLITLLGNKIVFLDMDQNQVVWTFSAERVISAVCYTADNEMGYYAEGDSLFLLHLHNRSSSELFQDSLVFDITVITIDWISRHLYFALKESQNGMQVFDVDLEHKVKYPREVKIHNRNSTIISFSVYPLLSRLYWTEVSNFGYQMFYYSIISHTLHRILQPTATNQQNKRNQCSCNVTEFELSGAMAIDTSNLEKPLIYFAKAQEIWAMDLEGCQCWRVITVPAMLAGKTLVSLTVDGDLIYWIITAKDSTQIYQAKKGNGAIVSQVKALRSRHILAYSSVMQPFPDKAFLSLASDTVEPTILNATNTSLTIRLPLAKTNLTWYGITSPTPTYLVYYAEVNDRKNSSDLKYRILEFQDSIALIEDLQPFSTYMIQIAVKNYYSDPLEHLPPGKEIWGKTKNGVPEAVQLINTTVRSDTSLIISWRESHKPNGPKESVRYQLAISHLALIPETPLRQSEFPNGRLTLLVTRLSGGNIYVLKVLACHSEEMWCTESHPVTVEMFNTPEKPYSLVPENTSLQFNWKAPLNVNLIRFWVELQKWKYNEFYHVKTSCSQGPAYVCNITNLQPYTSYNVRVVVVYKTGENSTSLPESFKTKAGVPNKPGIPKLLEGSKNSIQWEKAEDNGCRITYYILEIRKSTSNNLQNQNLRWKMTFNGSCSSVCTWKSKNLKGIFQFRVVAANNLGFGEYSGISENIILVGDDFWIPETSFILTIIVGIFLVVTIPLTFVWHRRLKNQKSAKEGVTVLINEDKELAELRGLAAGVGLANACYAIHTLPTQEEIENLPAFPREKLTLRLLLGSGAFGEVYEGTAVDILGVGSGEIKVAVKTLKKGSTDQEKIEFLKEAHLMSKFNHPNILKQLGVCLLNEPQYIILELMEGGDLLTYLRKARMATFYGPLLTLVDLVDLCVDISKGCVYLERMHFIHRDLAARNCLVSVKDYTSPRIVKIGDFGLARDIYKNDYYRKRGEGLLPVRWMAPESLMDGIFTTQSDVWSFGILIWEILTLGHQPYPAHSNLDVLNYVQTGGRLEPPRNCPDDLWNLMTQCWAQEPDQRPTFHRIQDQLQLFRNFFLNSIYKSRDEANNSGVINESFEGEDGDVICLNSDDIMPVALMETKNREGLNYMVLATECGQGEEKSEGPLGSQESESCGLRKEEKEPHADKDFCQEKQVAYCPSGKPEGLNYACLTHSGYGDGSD
T2 sequence (O60674 whole entry): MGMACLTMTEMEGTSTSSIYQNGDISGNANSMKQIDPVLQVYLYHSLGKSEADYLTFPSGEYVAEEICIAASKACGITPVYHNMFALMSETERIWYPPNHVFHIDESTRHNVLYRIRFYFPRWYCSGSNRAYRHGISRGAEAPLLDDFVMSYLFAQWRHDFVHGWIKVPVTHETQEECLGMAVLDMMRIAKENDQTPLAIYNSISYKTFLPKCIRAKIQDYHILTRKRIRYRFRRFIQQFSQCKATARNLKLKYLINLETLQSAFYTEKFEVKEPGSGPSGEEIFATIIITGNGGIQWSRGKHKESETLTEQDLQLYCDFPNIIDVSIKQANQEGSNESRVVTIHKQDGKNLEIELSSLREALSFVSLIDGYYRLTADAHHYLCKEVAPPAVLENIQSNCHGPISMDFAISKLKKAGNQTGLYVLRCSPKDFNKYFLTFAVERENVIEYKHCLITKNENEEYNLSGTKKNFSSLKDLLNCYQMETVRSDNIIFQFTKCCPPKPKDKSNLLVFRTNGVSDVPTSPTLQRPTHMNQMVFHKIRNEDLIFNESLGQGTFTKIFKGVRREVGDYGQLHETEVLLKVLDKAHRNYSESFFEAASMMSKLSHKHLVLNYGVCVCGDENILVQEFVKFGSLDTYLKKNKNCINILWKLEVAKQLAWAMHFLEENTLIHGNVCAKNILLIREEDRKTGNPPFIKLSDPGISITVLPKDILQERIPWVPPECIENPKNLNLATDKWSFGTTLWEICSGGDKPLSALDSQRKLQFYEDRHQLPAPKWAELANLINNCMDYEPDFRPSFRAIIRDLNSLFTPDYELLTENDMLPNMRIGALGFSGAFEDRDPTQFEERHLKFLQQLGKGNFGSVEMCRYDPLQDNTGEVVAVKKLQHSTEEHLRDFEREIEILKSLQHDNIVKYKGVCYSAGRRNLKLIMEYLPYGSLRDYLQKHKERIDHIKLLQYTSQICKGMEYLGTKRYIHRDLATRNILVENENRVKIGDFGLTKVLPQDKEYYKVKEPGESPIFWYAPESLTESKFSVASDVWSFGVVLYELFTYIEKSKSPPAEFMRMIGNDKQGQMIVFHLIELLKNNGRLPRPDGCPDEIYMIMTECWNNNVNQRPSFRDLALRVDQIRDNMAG

IC50 (ROS tyrosine kinase) [nM]	IC50 (JAK2 tyrosine kinase) [nM]	GI50 (FIG-ROS/BaF3 cell) [nM]	SMILES	effectiveness for patients of non-small cell lung cancer with ROS fusion gene positive [1]
1.3	260	1.9	COc1c(Nc2ncc(C#N)s2)nc(N2CCC[C@H]2c2ccc(C)cc2)nc1-c1ccc(O)nc1 [Example 65, 2-({6-(6-Hydroxypyridin-3-yl)-5-methoxy-2-[(2S)-2-(4-methylphenyl)pyrrolidin-1-yl]pyrimidin-4-yl}amino)-1,3-thiazole-5-carbonitrile]	
1.5	370	2.1	CCc1c(Nc2ncc(C#N)s2)nc(N2CCC[C@H]2c2ccc(C)cc2)nc1C(=O)NS(C)(=O)=O [Example 67, 6-[(5-Cyano-1,3-thiazol-2-yl)amino]-5-ethyl-2-[(2S)-2-(4-methylphenyl)pyrrolidin-1-yl]-N-(methylsulfonyl)pyrimidine-4-carboxamide]	
2.9	> 1000	1.7	CCc1c(C)nc(N2CCC[C@H]2c2ccc(C)cc2)nc1Nc1ncc(C#N)s1 [Example 70, 2-({5-Ethyl-6-methyl-2-[(2S)-2-(4-methylphenyl)pyrrolidin-1-yl]pyrimidin-4-yl}amino)-1,3-thiazole-5-carbonitrile maleate]	
1.2	150	2	CC(=O)N1CCc2nc(N3CCC[C@H]3c3ccc(C)cc3)nc(Nc3ncc(C#N)s3)c2C1 [Example 71, 2-({6-Acetyl-2-[(2S)-2-(4-methylphenyl)pyrrolidin-1-yl]-5,6,7,8-tetrahydropyrido[4,3-d]pyrimidin-4-yl}amino)-1,3-thiazole-5-carbonitrile]	

More lines, now with the values behind:

SMILES	IC50 (ROS tyrosine kinase) [nM]	IC50 (JAK2 tyrosine kinase) [nM]	GI50 (FIG-ROS/BaF3 cell) [nM]	effectiveness for patients of non-small cell lung cancer with ROS fusion gene positive [1]
Cc1ccc([C@@H]2CCCN2c2cc(C(=O)N[C@H]3CC[C@H](O)CC3)c(C)c(Nc3ncc(C#N)s3)n2)cc1 [Example 68, 2-[(5-Cyano-1,3-thiazol-2-yl)amino]-N-(4-hydroxycyclohexyl)-3-methyl-6-[(2S)-2-(4-methylphenyl)pyrrolidin-1-yl]pyridine-4-carboxamide]	0.76	22	0.71	
Cc1ccc([C@@H]2CCCN2c2cc(-c3cnn(C)c3)cc(Nc3ncns3)n2)cc1 [Example 69, 6-[(2S)-2-(4-Methylphenyl)pyrrolidin-1-yl]-4-(1-methyl-1H-pyrazol-4-yl)-N-(1,2,4-thiadiazol-5-yl)pyridine-2-amine]	11	17	6.9	
C[C@@H](Oc1cc(-c2cnn(C3CCNCC3)c2)cnc1N)c1c(Cl)ccc(F)c1Cl [crizotinib]				effective
